37 molecules from patent US7731985B2, “4-aminopyrimidines and their use for the antimicrobial treatment of surfaces” (Ciba Specialty Chemicals Corporation, priority 2002, dated 2010) can be followed below.

Holding throughout (test): MIC in microtitre plates (Example 10)
What all share (type): cell-based
What all share (design): unit not given here
Common to all, as to details: microtitre plate, 48 hours at 37° C., ≦20% growth

In assay [1] the test system is Escherichia coli NCTC 8196 (=EC). How it is done: (§1) Determination of the Minimum Inhibitory Concentration (MIC Value) in Microtitre Plates Casein/soymeal peptone broth for preparation of pre-cultures of test bacteria and yeast Bacteria: • Pseudomonas aeruginosa CIP A-22 (=PA) • Escherichia coli NCTC 8196 (=EC) • Staphylococcus aureus ATCC 9144 (=SA) • Candida albicans ATCC 10231 (=CA) The test substances are pre-dissolved in dimethyl sulfoxide (DMSO) and tested in a dilution series of 1:2. Bacteria and yeast are cultured overnight in CASO broth. All the test organism suspensions are adjusted to an organism count of 1-5×10^6 CFU/ml using […] sodium chloride solution. The test substances are pre-pipetted into microtitre plates in amounts of 8 μl per well. The pre-adjusted organism suspensions are diluted 1:100 in CASO broth and are added in amounts of 192 μl per well to the test substances. The test batches are incubated for 48 hours at 37° C. The incubation, the growth is determined on the basis of the turbidity of the test batches (optical density) at 620 nm in a microplate reader. The minimum inhibitory concentration (MIC value) is the concentration of substance at which (compared to the growth of the control) an appreciable inhibition of growth (≦20% growth) of the test organisms is observed. Three microtitre plates are used for each test organism and substance concentration. All the substances are tested in duplicate.

Assay [2] relates to Candida albicans ATCC 10231 (=CA). How it is done:
as §1

Assay [3] concerns Staphylococcus aureus ATCC 9144 (=SA). As for the experimental part:
as §1

Assay [4] relates to Pseudomonas aeruginosa CIP A-22 (=PA). How it is done: as §1

The structures appear in SMILES notation.

For `CCCCN(C)c1cc(C)nc(C(C)C)n1` [compound 128], in assay [1], the “MIC EC” value is listed as >120. Also, the “MIC CA” value in assay [2] was found to be 120. The “MIC SA” value in assay [3] is reported as 120. Further, the “MIC PA” value in assay [4] is on record as >120.
With `NCCN1CCN(c2nc(-c3ccccc3)nc(-c3cccc4ccccc34)c2-c2ccccc2)CC1` [compound 3], the “MIC EC” value in assay [1] stood at 15. In addition, in assay [2], the “MIC CA” value turned out to be 7.5. Besides, in assay [3], the “MIC SA” value stood at 7.5. For the same molecule, the “MIC PA” value in assay [4] is on record as >120.
Take `CCCCCCCCCCNc1cc(C)nc(-c2ccc(-c3ccccc3)cc2)n1` [compound 96]: the “MIC EC” value in assay [1] is 30. Further, the “MIC CA” value in assay [2] is recorded as 15. Moreover, the “MIC SA” value in assay [3] was found to be 15. In assay [4], the “MIC PA” value was >120.
`CCCCCCCCCCCCNc1cc(C)nc(-c2ccc(-c3ccccc3)cc2)n1` [compound 84]: the “MIC EC” value in assay [1] was 15. The “MIC CA” value in assay [2] turned out to be 7.5. The “MIC SA” value in assay [3] is reported as 15. Moreover, the “MIC PA” value in assay [4] is >120.
For `CCCCCCCCNc1cc(C)nc(-c2cccs2)n1` [compound 59], the “MIC EC” value in assay [1] is listed as 60. In assay [2], the “MIC CA” value worked out at 60. The “MIC SA” value in assay [3] amounted to 15. Moreover, the “MIC PA” value in assay [4] is >120.
In the case of `CCCCCCCCCCCCNc1cc(C)nc(-c2cccc(N)c2)n1` [compound 90], in assay [1], the “MIC EC” value was 15. In addition, the “MIC CA” value in assay [2] is reported as <3.75. For the same molecule, the “MIC SA” value in assay [3] is recorded as 7.5. Moreover, the “MIC PA” value in assay [4] is >120.
As for `CCCCCCCCCCCCNc1cc(C)nc(C2CC2)n1` [compound 92], the “MIC EC” value in assay [1] was 15. In addition, the “MIC CA” value in assay [2] came to 7.5. Besides, in assay [3], the “MIC SA” value was <3.75. The “MIC PA” value in assay [4] is listed as >120.
The corresponding values for `CCCCCCCCNc1cc(C)nc(-c2ccc(-c3ccccc3)cc2)n1` [compound 57] are >120, 120, 60 and >120.
The corresponding values for `CCCCC(CC)CNc1cc(C)nc(-c2ccc(C(C)(C)C)cc2)n1` (stereo not shown) [compound 131] are >120, >120, 120 and >120.
As to `Cc1cc(NCc2ccccn2)nc(-c2cccnc2)n1` [compound 49], in assay [1], the “MIC EC” value was >120. Moreover, the “MIC CA” value in assay [2] is listed as >120. Further, the “MIC SA” value in assay [3] turned out to be 120. The “MIC PA” value in assay [4] is >120.
On to `Cc1cc(N(C)CCO)nc(-c2cccnc2)n1` [compound 55], for which the “MIC EC” value in assay [1] was >120. Further, the “MIC CA” value in assay [2] is given as >120. The “MIC SA” value in assay [3] worked out at 120. The “MIC PA” value in assay [4] is recorded as >120.
Turning to `CCCCNc1cc(C)nc(-c2cccnc2)n1` [compound 32], the “MIC EC” value in assay [1] was determined as 120. Also, the “MIC CA” value in assay [2] came to 60. The “MIC SA” value in assay [3] stood at 60. For the same molecule, the “MIC PA” value in assay [4] is recorded as >120.
On to `CCCCCCNc1cc(C)nc(C)n1` [compound 113], for which the “MIC EC” value in assay [1] is given as 120. In assay [2], the “MIC CA” value was found to be 30. Moreover, in assay [3], the “MIC SA” value was determined as 7.5. The “MIC PA” value in assay [4] is reported as >120.
The corresponding values for `CCCCCCCCCCNc1cc(C)nc(-c2cccc(N)c2)n1` [compound 102] are 30, 15, 7.5 and >120.
The corresponding values for `Cc1cc(NCc2ccccc2)nc(-c2cccnc2)n1` [compound 45] are >120, 120, 60 and >120.
For `CCCCN(C)c1cc(C)nc(-c2cccnc2)n1` [compound 53], in that order: >120, 120, 60 and >120.
Turning to `FC(F)(F)c1cccc(-c2nc(-c3ccccc3)nc(N3CCNCC3)c2-c2ccccc2)c1` [compound 16], the “MIC EC” value in assay [1] turned out to be 15. Besides, the “MIC CA” value in assay [2] is 15. The “MIC SA” value in assay [3] is recorded as 7.5. Further, the “MIC PA” value in assay [4] is on record as >120.
Take `CCCCCCCCCCNc1cc(C)nc(-c2ccc(C)c(F)c2)n1` [compound 107]: the “MIC EC” value in assay [1] is on record as 15. For the same molecule, the “MIC CA” value in assay [2] worked out at 15. Also, the “MIC SA” value in assay [3] came out at 7.5. The “MIC PA” value in assay [4] is recorded as >120.
Turning to `CCCCCCCCCCNc1cc(C)nc(-c2ccc(C)cc2)n1` [compound 103], the “MIC EC” value in assay [1] worked out at 60. Moreover, in assay [2], the “MIC CA” value is listed as 30. The “MIC SA” value in assay [3] amounted to 15. In addition, in assay [4], the “MIC PA” value is >120.
For `Cc1cc(NCCc2ccccc2)nc(-c2cccnc2)n1` [compound 48], in that order: >120, 60, 30 and >120.
On to `CCCCCCCCCCCCNc1cc(C)nc(-c2ccncc2)n1` [compound 88], for which the “MIC EC” value in assay [1] came to 15. Also, the “MIC CA” value in assay [2] is 7.5. For the same molecule, the “MIC SA” value in assay [3] amounted to 15. In assay [4], the “MIC PA” value is <120.
Take `CCCCC(CC)CNc1cc(C)nc(-c2csc(C)n2)n1` (stereo not shown) [compound 139]: the “MIC EC” value in assay [1] is listed as 60. Further, in assay [2], the “MIC CA” value is 30. The “MIC SA” value in assay [3] stood at 7.5. In addition, in assay [4], the “MIC PA” value was >120.
The corresponding values for `CCCCCCNc1cc(C)nc(-c2cccc(N)c2)n1` [compound 114] are >120, 30, 15 and >120.
As for `CCCCCCCCNc1cc(C)nc(-c2ccccc2)n1` [compound 63], the “MIC EC” value in assay [1] came to 30. In addition, the “MIC CA” value in assay [2] is reported as 60. Besides, the “MIC SA” value in assay [3] was determined as 15. Further, in assay [4], the “MIC PA” value was >120.
For `CCCCCCCCCCCCCCNc1cc(C)nc(-c2cccs2)n1` [compound 73], in that order: 7.5, <3.75, <3.75 and >120.
For `Cc1cc(NC2CCCCC2)nc(-c2cccnc2)n1` [compound 46], the “MIC EC” value in assay [1] is reported as >120. Also, in assay [2], the “MIC CA” value is given as 120. Also, the “MIC SA” value in assay [3] is listed as 120. Moreover, the “MIC PA” value in assay [4] is reported as >120.
As for `CCCCCCCCCCCCCCNc1cc(C)nc(C)n1` [compound 78], the “MIC EC” value in assay [1] came to 7.5. The “MIC CA” value in assay [2] is <3.75. Moreover, the “MIC SA” value in assay [3] is <3.75. Also, the “MIC PA” value in assay [4] is on record as >120.
As for `CCCCCCCCNc1cc(C)nc(C)n1` [compound 65], in assay [1], the “MIC EC” value was determined as 60. The “MIC CA” value in assay [2] was 15. For the same molecule, the “MIC SA” value in assay [3] is recorded as 30. Also, the “MIC PA” value in assay [4] is listed as >120.
Take `NCCN1CCN(c2nc(-c3ccccc3)nc(-c3cccc(C(F)(F)F)c3)c2-c2ccccc2)CC1` [compound 19]: in assay [1], the “MIC EC” value is on record as 15. Also, the “MIC CA” value in assay [2] stood at 8. Further, the “MIC SA” value in assay [3] is 7.5. Further, in assay [4], the “MIC PA” value was >120.
The corresponding values for `COCC(C)Nc1cc(C)nc(-c2cccnc2)n1` (stereo not shown) [compound 43] are >120, 120, 60 and >120.
The corresponding values for `CCCCCCCCCCCCCCNc1cc(C)nc(-c2ccc(-c3ccccc3)cc2)n1` [compound 71] are 15, 7.5, 7.5 and >120.
The corresponding values for `COc1cccc(-c2nc(-c3ccccc3)nc(NCCCN(C)CCCN)c2-c2ccccc2)c1` [compound 24] are 15, 30, 30 and 30.
As for `CCCCCCCCCCCCCCNc1cc(C)nc(-c2ccc(C)cc2)n1` [compound 79], the “MIC EC” value in assay [1] is reported as <3.75. The “MIC CA” value in assay [2] was <3.75. For the same molecule, the “MIC SA” value in assay [3] is on record as <3.75. Further, the “MIC PA” value in assay [4] is >120.
For `CCCCN(C)c1cc(C)nc(C)n1` [compound 126], the “MIC EC” value in assay [1] was >120. In addition, the “MIC CA” value in assay [2] came out at 120. Further, the “MIC SA” value in assay [3] was 120. The “MIC PA” value in assay [4] is >120.
As to `COc1cccc(-c2nc(-c3ccccc3)nc(NCCCN3CCN(CCCN)CC3)c2-c2ccccc2)c1` [compound 25], in assay [1], the “MIC EC” value was determined as 60. Moreover, the “MIC CA” value in assay [2] is listed as 120. The “MIC SA” value in assay [3] is listed as >120. Moreover, the “MIC PA” value in assay [4] was >120.
As to `CCCCCCCCCCCCNc1cc(C)nc(-c2csc(C)n2)n1` [compound 94], in assay [1], the “MIC EC” value was 15. The “MIC CA” value in assay [2] is 7.5. Also, the “MIC SA” value in assay [3] is reported as <3.75. The “MIC PA” value in assay [4] is >120.
For `NCCCCCCCCCCNc1nc(-c2ccccc2)nc(-c2cccc3ccccc23)c1-c1ccccc1` [compound 5], in that order: >120, >120, 7.5 and >120.
